The test system of one assay is IgE. The assay can be described thus: Determination of Igs produced in in vitro culture: inhibition of IgE secreted by spleen cells (adoptive secondary immune response to DNP-As), ELISA. The format is cell-based, BALB/c mice. Conditions: 4 days culture; for inhibition at 40 µg/mL: 40.0 μg/ml; for inhibition at 2.5 µg/mL: 2.5 μg/ml; for inhibition at 5 µg/mL: 5.0 μg/ml. The method, boiled down: (§1)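 Donor BALB/c mice primed i.p. with 5 μg DNP-As on alum; 5×10^7 spleen cells transferred i.v. into 600-rad-irradiated recipients, boosted likewise. After 4 weeks, recipient spleen cells (5×10^6 cells/ml) cultured ± compound 4 days at 37° C; secreted IgG/IgE quantified by ELISA, % inhibition vs untreated culture.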

A further assay concerns IgG. Briefly: Determination of Igs produced in in vitro culture: inhibition of IgG secreted by spleen cells (adoptive secondary immune response to DNP-As), ELISA. The format is cell-based, BALB/c mice. Conditions: 4 days culture; for inhibition at 40 µg/mL: 40.0 μg/ml; for inhibition at 2.5 µg/mL: 2.5 μg/ml; for inhibition at 5 µg/mL: 5.0 μg/ml. An outline of the steps:
as §1

SMILES strings stand for the structures.

On to `CSc1c(C#N)c(=O)n2ccccc2c1C(=O)Cc1ccccc1` [S-95, 3-Cyano-2-methylthio-1-phenylacetyl-4H-quinolizin-4-one], for which the inhibition – broadly, how much of the control response was suppressed – at 20 µg/mL in the assay with IgE (Mus musculus, 96 h, 20.0 μg/ml) came out at 70%; with IgG (Mus musculus, 96 h, 20.0 μg/ml) it was 47%.

Turning to `CSc1c(C#N)c(=O)n2ccccc2c1C(C)=O` [S-92, 1-Acetyl-3-cyano-2-methylthio-4H-quinolizin-4-one], the inhibition at 40 µg/mL in the assay on IgE (Mus musculus, 96 h) came to 56%; with IgG (Mus musculus, 96 h) it was 8%.

As for `CSc1c(C#N)c(=O)n2ccccc2c1C(=O)N1CCC(c2ccccc2)CC1` [S-78, 3-Cyano-2-methylthio-1-(4-phenylpiperidinocarbonyl)-4H-quinolizin-4-one], the inhibition at 2.5 µg/mL in the assay on IgE (Mus musculus, 96 h) was found to be 60%; with IgG (Mus musculus, 96 h), 16%.

With `C=C(C)CSc1c(C#N)c(=O)n2ccccc2c1C(=O)OCC` [S-56], the inhibition at 5 µg/mL with IgE (Mus musculus, 96 h) came out at 70%; in the assay on IgG (Mus musculus, 96 h) it was 30%.

As for `CSc1c(C#N)c(=O)n2ccccc2c1C(=O)OCc1ccc(C)c(C)c1` [S-25, 3',4'-Dimethylbenzyl 3-cyano-2-methylthio-4H-quinolizin-4-one-1-carboxylate], the inhibition at 5 µg/mL was 75% with IgE (Mus musculus, 96 h) and 54% with IgG (Mus musculus, 96 h).

In the case of `CSc1c(C#N)c(=O)n2ccccc2c1C(=O)OCc1ccc(Br)cc1` [S-23, 4'-Bromobenzyl 3-cyano-2-methylthio-4H-quinolizin-4-one-1-carboxylate], the inhibition at 1 µg/mL in the assay on IgE (Mus musculus, 96 h, 1.0 μg/ml) was 79%; in the assay on IgG (Mus musculus, 96 h, 1.0 μg/ml), 34%.

For `COc1cc(COC(=O)c2c(SC)c(C#N)c(=O)n3ccccc23)cc(OC)c1OC` [S-27, 3',4',5'-Trimethoxybenzyl 3-cyano-2-methylthio-4H-quinolizin-4-one-1-carboxylate], the inhibition at 2.5 µg/mL in the assay with IgE (Mus musculus, 96 h) is 56%; with IgG (Mus musculus, 96 h), 16%.

As to `CSc1c(C#N)c(=O)n2ccccc2c1C(=O)OCCc1ccccc1` [S-48, 2'-Phenylethyl 3-cyano-2-methylthio-4H-quinolizin-4-one-1-carboxylate], the inhibition at 1 µg/mL in the assay with IgE (Mus musculus, 96 h, 1.0 μg/ml) was determined as 57%; with IgG (Mus musculus, 96 h, 1.0 μg/ml), 15%.

`CSc1c(C#N)c(=O)n2ccccc2c1C(=O)N1CCC(Cc2ccccc2)CC1` (single isomer, unassigned) [S-82B, 1-(4-Benzylpiperidinocarbonyl)-3-cyano-2-methylthio-4H-quinolizin-4-one]: the inhibition at 2.5 µg/mL in the assay with IgE (Mus musculus, 96 h) is 63%; in the assay on IgG (Mus musculus, 96 h), 8%.

`CSc1c(C#N)c(=O)n2ccccc2c1C(=O)N1CCC2CCCCC21` (single isomer, unassigned) [S-85B, 3-Cyano-2-methylthio-1-(perhydroindol-1-yl-carbonyl)-4H-quinolizin-4-one]: the inhibition at 2.5 µg/mL in the assay on IgE (Mus musculus, 96 h) was 39%; in the assay with IgG (Mus musculus, 96 h), 19%.

For the compound `CCOC(=O)c1c(SC(C)C)c(C#N)c(=O)n2ccccc12` [S-57, Ethyl 3-cyano-2-isopropylthio-4H-quinolizin-4-one-1-carboxylate], the inhibition at 5 µg/mL in the assay with IgE (Mus musculus, 96 h) was 53%; in the assay with IgG (Mus musculus, 96 h) it was 32%.

On to `CSc1c(C#N)c(=O)n2ccccc2c1C(=O)N1CCC(OC(C)=O)(c2ccccc2)CC1` [S-80, 1-(4-Acetoxy-4-phenylpiperidinocarbonyl)-3-cyano-methylthio-4H-quinolizin-4-one], for which the inhibition at 2.5 µg/mL in the assay with IgE (Mus musculus, 96 h) turned out to be 66%; in the assay with IgG (Mus musculus, 96 h), 34%.

With `CSc1c(C#N)c(=O)n2ccccc2c1C(=O)OC1CCCCC1C` (stereo not drawn) [S-17, 2'-Methylcyclohexyl 3-cyano-2-methylthio-4H-quinolizin-4-one-1-carboxylate], the inhibition at 0.25 µg/mL is 43% in the assay with IgE (Mus musculus, 96 h, 0.25 μg/ml) and 7% in the assay on IgG (Mus musculus, 96 h, 0.25 μg/ml).

In the case of `CSc1c(C#N)c(=O)n2ccccc2c1C(=O)OC1CCCc2ccccc21` (stereo not drawn) [S-22, 1',2',3',4'-Tetrahydro-1'-naphthyl 3-cyano-2-methylthio-4H-quinolizin-4-one-1-carboxylate], the inhibition at 40 µg/mL amounted to 82% with IgE (Mus musculus, 96 h) and 42% with IgG (Mus musculus, 96 h).

Turning to `CSc1c(C#N)c(=O)n2ccccc2c1C(=O)NCCCc1ccccc1` [S-71], the inhibition at 5 µg/mL came out at 63% in the assay with IgE (Mus musculus, 96 h) and 35% with IgG (Mus musculus, 96 h).

For the compound `CSc1c(C#N)c(=O)n2ccccc2c1C(=O)OCC(c1ccccc1)c1ccccc1` [S-44, 2',2'-Diphenylethyl 3-cyano-2-methylthio-4H-quinolizin-4-one-1-carboxylate], the inhibition at 1 µg/mL in the assay on IgE (Mus musculus, 96 h, 1.0 μg/ml) was found to be 54%; with IgG (Mus musculus, 96 h, 1.0 μg/ml) it was 18%.

As to `COc1ccc(COC(=O)c2c(SC)c(C#N)c(=O)n3ccccc23)cc1` [S-31, 4'-Methoxybenzyl 3-cyano-2-methylthio-4H-quinolizin-4-one-1-carboxylate], the inhibition at 40 µg/mL was 34% in the assay on IgE (Mus musculus, 96 h) and 3% with IgG (Mus musculus, 96 h).

Take `CSc1c(C#N)c(=O)n2cccc(C)c2c1C(=O)N1CCC(c2ccccc2)CC1` (single isomer, unassigned) [S-81B, 3-Cyano-9-methyl-2methylthio-1-(4-phenylpiperidinocarbonyl)-4H-quinolizin-4-one]: in the assay with IgE (1.0 μg/ml), the “Inhibition % of IgE” value worked out at 50%. The “Inhibition % of IgG” value with IgG (1.0 μg/ml) was 4%.

For `CSc1c(C#N)c(=O)n2ccccc2c1C(=O)N1CCCC2CCCCC21` (stereo not drawn) [S-86], the inhibition at 2.5 µg/mL in the assay with IgE (Mus musculus, 96 h) was 46%; in the assay with IgG (Mus musculus, 96 h) it was 21%.

As for `CSc1c(C#N)c(=O)n2ccccc2c1C(=O)OCC1CCCCC1` [S-1, Cyclohexylmethyl 3-cyano-2-methylthio-4H-quinolizin-4-one-1-carboxylate], the inhibition at 5 µg/mL in the assay on IgE (Mus musculus, 96 h) was 65%; in the assay with IgG (Mus musculus, 96 h) it was 22%.

For `CSc1c(C#N)c(=O)n2ccccc2c1C(=O)NCc1ccccc1` [S-73, N-Benzyl-3-cyano-2-methylthio-4H-qunolizin-4-one-1-carboxamide], the inhibition at 40 µg/mL in the assay with IgE (Mus musculus, 96 h) came out at 55%; with IgG (Mus musculus, 96 h), 24%.
